# Data: PubChem BioAssay AID1996
# Details: buffer; pH 7.4; 200.0 µM
row,Structure (SMILES),solubility kinetic [µg/mL]
1,COC(=O)c1ccc(CSC(=N)N)o1,27.6
2,CN1CC(=O)N/C1=N\C(=O)Nc1ccc(O)cc1,> 37.2
3,Oc1ccc(Cl)cc1CNc1cccc2cccnc12,0.5
4,O=C(CCCCC(=O)NCCc1ccccc1)NCCc1ccccc1,2.8
5,COc1cc(OC)cc(C(=O)Nc2ccc3c(c2)OCCO3)c1,44.8
6,COc1ccc(OC)c(N/C(C)=C/C(=O)c2ccncc2)c1,36.9
7,O=[N+]([O-])c1ccc2nc(-c3ccccc3)oc2c1,0.4
8,COc1ccc2ccccc2c1C1NC(=O)NC(C)=C1[N+](=O)[O-] (stereo unspecified),2.1
9,Clc1nc(NC2CCCC2)nc(N2CCOCC2)n1,5.1
10,COc1ccc(C)cc1S(=O)(=O)NCCN1CCOCC1,> 47.2
11,CNS(=O)(=O)Cc1ccc2[nH]cc(CCN(C)C)c2c1,40.3
12,CCS(=O)(=O)Nc1cccc(C(=O)O)c1,30.5
13,CCOc1ccc2[nH]cc(-c3csc(N)n3)c2c1,20.5
14,O=c1oc2ccccc2c(N2CCOCC2)c1[N+](=O)[O-],> 41.4
15,Cc1nc2ccc(NC(=O)c3ccc4ccccc4n3)cc2s1,< 0.2
16,CN(C(=O)COC(=O)CNC(=O)c1sc2ccccc2c1Cl)C1CCS(=O)(=O)C1 (stereo unspecified),> 68.8
17,CCNc1ccc([N+](=O)[O-])cc1,19.9
18,O=C(Nc1ccc2[nH]c(=O)[nH]c2c1)C(F)(F)F,23.9
19,CN1CCN(CC(=O)Nc2nc3ccccc3s2)CC1.O=CO,50.4
20,O=[N+]([O-])c1ccc(Sc2ccc(F)cc2)nc1,0.7
21,O=C(CCc1ccc(S(=O)(=O)N2CCOCC2)cc1)OCC(=O)c1ccccc1F,49.6
22,CC1(C)CC(NC(=S)Nc2ccc([N+](=O)[O-])cc2)CC(C)(C)N1,42.1
23,CC(C)(C)NS(=O)(=O)c1ccc2[nH]c3c(c2c1)CCCCC3,8.8
24,CCN(CC(=O)N1CCCCC1)S(=O)(=O)c1ccccc1,42.4
25,CCOc1ccccc1NC(=O)CN1C(=O)CSC(C)C1=O (stereo unspecified),> 48.4

row,Structure (SMILES),solubility kinetic [µg/mL]
1,COc1ccc2oc(C(=O)N3CCN(c4ncccn4)CC3)c(C)c2c1,4.8
2,Cc1cc(NC(=O)COC(=O)c2ccccc2Cl)no1,16.3
3,O=C1N(c2ccccc2)C[C@@H]2C[C@@H](c3cccs3)N3CCC[C@@]123,41.8
4,CC1CCCC(C)N1C(=O)COC(=O)c1ccccc1O (stereo unspecified),42.3
5,CN1CC(C(=O)c2ccc(F)cc2)C(c2c(F)cccc2Cl)C1 (stereo unspecified),40.9
6,Cc1ccc(NC(=O)Cn2c(C)csc2=O)cc1,> 39.3
7,CCN(CC)c1ccc(C(=O)OCC(=O)N2CCCC2)cc1,> 45.7
8,CC(C)(C)c1csc(Sc2ccc([N+](=O)[O-])cn2)n1,1.1
9,O=C(OCC(=O)c1ccc[nH]1)c1ccccc1,32.2
10,COc1ccc(NC(=O)CCCC(=O)NCCc2ccc(OC)c(OC)c2)cc1,46
11,COc1ccc(S(=O)(=O)N2CCOCC2)cc1NC(=O)CN1CCCc2ccccc21,2.9
12,CCOc1ccc(C(C)=O)cc1Cn1ccsc1=N.Cl,> 46.9
13,O=C1C(Cc2ccc(O)cc2)NC(=S)N1Cc1ccccc1 (stereo unspecified),> 46.9
14,COc1ccc(OC)c2c1sc(=NC(=O)C1CC1)n2C,0.9
15,N#Cc1ccc(S(=O)(=O)N2CCN(c3ncccn3)CC2)cc1,1.9
16,O=C(NC(O)C(=O)c1ccc(F)cc1)c1ccc(F)cc1 (stereo unspecified),> 43.7
17,CN(C)/C=N/C(=S)Nc1ccccc1,> 31.1
18,COc1ccc(-c2cn3ccccc3n2)cc1,> 33.6
19,COc1ccc(C(=O)c2nc3ccccc3n2C(C)C)cc1,22.3
20,CN1C2=NCCN2C(=O)c2cc(Cl)ccc21,30.9
21,Cc1cccc(C(C)C)c1NC(=O)CSc1cccc[n+]1[O-],> 47.5
22,O=[N+]([O-])c1cccc(S(=O)(=O)NCCc2cn3ccccc3n2)c1,48.5
23,CCc1cccc(C)c1NC(=S)N1CCCCC1c1cccnc1 (stereo unspecified),46.3
24,COc1ccc(C(C)(C)C)cc1NC(=O)C1=CC=CN2CCS(=O)(=O)N=C12,1.7
25,COc1ccc(Cl)cc1NC(=S)Nc1cccnc1,38.1

row,Structure (SMILES),solubility kinetic [µg/mL]
1,Cc1ccc(NC(=O)COC(=O)c2cccnc2Cl)cc1S(=O)(=O)N1CCOCC1,66
2,CC(=O)Nc1cccc(OCC(=O)Nc2sccc2C(N)=O)c1,4.9
3,N#Cc1ccccc1S(=O)(=O)N1CCN(C(=O)C2CCCC2)CC1,> 52.1
4,Cc1ccccc1NC1(C#N)CCCCC1,3.6
5,Cc1cccc(C)c1NC(=O)c1ccc(N2CCCC2=O)cc1,> 46.3
6,COc1ccc(OCC(O)CN2CC(C)OC(C)C2)cc1.Cl (stereo unspecified),> 49.8
7,O=C(CC1SC(N2CCCCC2)=NC1=O)Nc1cccc(C(=O)NCc2ccccc2)c1 (stereo unspecified),> 67.6
8,COc1ccc(C(=O)NCc2ccc3c(c2)cc(C)n3C)cc1OC,4.7
9,Cc1ccc(S(=O)(=O)N(Cc2ccccc2)C(C)C)cc1,5
10,c1ccc(-c2noc(CN3CCc4sccc4C3)n2)cc1,13.4
11,COc1ccc2oc(=Nc3cc(F)ccc3F)c(C(N)=O)cc2c1,< 0.4
12,O=C(Nc1cccc(O)c1)c1cccc(S(=O)(=O)Nc2cccc(O)c2)c1,> 57.7
13,Cc1cc(C(=O)N(C)C2CCCCC2)no1,> 33.3
14,COc1cccc(C(=O)N2CCn3c2nc2ccccc23)c1,> 44
15,CCCC(=O)N/C(N)=N/c1nc(C)c2ccccc2n1,15.3
16,COC(=O)C(Cc1c[nH]c2ccccc12)N1CCS(=O)(=O)CC1 (stereo unspecified),> 50.5
17,CCOc1ccc(N2CC(C(=O)NCCc3ccc(F)cc3)CC2=O)cc1 (stereo unspecified),30.8
18,COC(=O)Nc1nncs1,> 23.9
19,O=C(Nc1ccc(Cl)cc1C(=O)N1CCCCC1)c1ccco1,46.6
20,Clc1ccccc1-c1ncc(-c2ccccc2)o1,< 0.5
21,Cc1cc(NC(=O)NC2CC(=O)N(c3ccc4c(c3)OCCO4)C2)no1 (stereo unspecified),48.5
22,CNC(=O)c1csc(-c2cccs2)n1,33.3
23,O=[N+]([O-])c1ccc(N2CCN(c3ccccc3O)CC2)cc1,0.5
24,O=C(CSc1nncn1-c1ccccc1)N1CCCC1,> 43.3
25,COC(=O)/C(C#N)=C/c1c[nH]c2ccccc12,7.1

row,Structure (SMILES),solubility kinetic [µg/mL]
1,O=C1CCc2cc(S(=O)(=O)Nc3ccccc3)cc3c2N1CC3,> 49.3
2,COc1cc2c(cc1OC)C(c1ccc(Br)cc1)NC(=O)C2 (stereo unspecified),45.2
3,CN(C)CC/C=C1\c2ccccc2Sc2cc(F)c(Cl)cc21.Cl,43
4,O=C(Nc1ccc2c(c1)CCC2)c1cccc(OC(F)F)c1,10.2
5,CNc1ncnc2sc(-c3ccccc3)cc12,4.3
6,CCCNC(=O)C12CCC(C)(c3nc4cc(C)c(C)cc4nc31)C2(C)C (stereo unspecified),32.2
7,Cc1cc(O)cc(=O)n1Cc1ccccc1,> 32.3
8,CSc1cccc(NC(=O)CC(C)n2ccnc2)c1 (stereo unspecified),> 41.3
9,CN1CCN(c2ccc([N+](=O)[O-])cc2NC(=O)c2ccco2)CC1,20.8
10,O=C(O)C1CCN(c2ccccc2[N+](=O)[O-])CC1,> 37.5
11,CC(=NCCCO)c1c(O)[nH]c(=O)[nH]c1=O,> 34.1
12,Cc1ccccc1S(=O)(=O)Nc1ncnc2ccccc12,> 44.9
13,Cc1nc(Cc2nnc(SCC(=O)N3CC(=O)Nc4ccccc43)o2)cs1,> 60.2
14,O=C(CCN1CCOCC1)Nc1ccc(F)cc1,30.1
15,COc1ccc(CC(=O)N2CCN(c3cccc(C)c3C)CC2)cc1,25.1
16,Cc1cccc(C(=O)OCC(=O)NC2CCCCCCC2)c1,21.6
17,CCOc1ccc(Nc2ccc([N+](=O)[O-])c3nonc23)cc1,15.2
18,COC(=O)CN1CCN(C(=O)c2ccco2)CC1,> 37.8
19,COC(=O)c1scc(C)c1NC(=O)c1cccc(C#N)c1,> 45
20,O=C(COC(=O)Cc1ccsc1)Nc1cccc(Cl)c1,> 46.5
21,CCCCSCCCNC(=O)Nc1ccc(C)c(C)c1,1.1
22,Nc1cccc(Oc2ccc3c(c2)C(=O)NC3=O)c1,36.6
23,CCOc1ncccc1C(=O)N=c1sccn1C,> 39.5
24,CC(C)Cc1csc(NC(=O)C(C)C)c1C(=O)O,> 40.4
25,NC(=O)c1cccnc1Oc1ccc(Cl)cc1,> 37.3

row,Structure (SMILES),solubility kinetic [µg/mL]
1,COc1cc(C=O)ccc1OC(=O)c1cccnc1,33.7
2,CN(C(=O)CSc1nc(-c2cccs2)nc2ccccc12)C1CCS(=O)(=O)C1 (stereo unspecified),2.5
3,Cc1ccc(Cl)cc1NC(=O)NCc1ccccn1,36.5
4,CN(CC(=O)NCCCn1ccnc1)S(=O)(=O)c1ccc(Cl)cc1,> 55.6
5,O=C(N/N=C/c1ccco1)c1ccc2nc[nH]c2c1,> 38.1
6,CCOC(=O)c1ccc(NC(=O)c2cccnc2)cc1,> 40.5
7,Cc1cccc(N=C2C(=O)Nc3c(Cl)cccc32)c1,32.4
8,CCCc1cc(=O)[nH]c(SCc2ccc(F)cc2)n1,3.2
9,CCS(=O)(=O)c1ccc(O)c(NC(=O)CCCC(=O)O)c1,41.5
10,O=C(NCC1CCCO1)C1CC(=O)N(c2ccccc2)C1 (stereo unspecified),> 43.3
11,COc1cc(C(=O)NC2CCCc3ccccc32)cc(OC)c1C (stereo unspecified),< 0.7
12,CC1CCCCC1NC(=O)COC(=O)/C=C/c1ccco1 (stereo unspecified),22.6
13,CCCCn1c(=O)c(C(=O)NC(C)c2ccccc2)c(O)c2ccccc21 (stereo unspecified),< 0.4
14,CCc1cc2c(SCC(=O)NC3CC3)ncnc2s1,> 44
15,CCOC(=O)C1=C(N)OC2=C(C(=O)CCC2)C12C(=O)N(C)c1ccccc12 (stereo unspecified),29.1
16,CCN(CC)C(=O)c1ccc(-c2cccs2)s1,32.6
17,O=C(CC1NC(=S)NC1=O)c1ccc(Cl)cc1 (stereo unspecified),3.2
18,Cc1[nH]c2ccc(Br)cc2c(=S)c1C/C=C/Cl,5.3
19,CC(=O)C1=C(O)C(=O)N(c2ccc(O)cc2)C1c1cccc([N+](=O)[O-])c1 (stereo unspecified),> 53.1
20,CC1CCN(c2ccccc2NC(=O)c2ccc([N+](=O)[O-])o2)CC1,0.5
21,Cc1c(C(=O)N2C[C@@H](C)O[C@@H](C)C2)oc2c(F)cccc12,> 43.7
